Marks after values point to notes of the source that are not given here.
Experiments:
[1] = Chemical stability of alcaftadine solution in non-sterilized or gamma irradiated LDPE bottles and glass vials (HPLC); type: physicochemical
Excerpt: The existence of the N-oxide structures as the primary oxidative degradation peak was confirmed as having the same HPLC relative retention time as a synthetically produced N-oxide structures and also confirmed using mass spectroscopy.
To investigate the effects of the gamma irradiation process used to sterilize the LDPE bottles, the chemical stability of alcaftadine was studied using different lots of bottles, either gamma irradiated or non-sterilized.
The following materials were used in this study.
2.5 mg/ml alfactadine solution
Non-sterilized 5 ml LDPE bottles (DUPONT 20-6064) from Bunder Glas GmbH (Germany)
Non-sterilized 5 ml LDPE bottles (DUPONT 20-6064) from Rexam (France)
Sterilized (gamma irradiated at 25 kGy) LDPE bottles (DUPONT 20-6064) from Bunder Glas GmbH
Scintillation vials—20 ml clear glass with Teflon coated cap Millex GV syringe filter unit
Chemical stability results for alcaftadine solution stored in either non-sterilized bottles (Rexam or Bunder Glas) or gamma-irradiated bottles (Bunder Glas) are summarized in Table 2. All samples were assayed by HPLC after 6 and 14 days of storage at 50° C. Light exposure was not controlled during storage. The solution was stored in either Rexam bottles (without sterilization), Bunder Glas bottles (sterilized with y Irradiation or without sterilization) and in glass vials.

[2] = tested on: adult volunteers with a history of allergic conjunctivitis; assay: Conjunctival Allergen Challenge (CAC) in adult volunteers; type: in vivo, human
Description: The anti-allergic effect of a single dose of each of the three concentrations of alcaftadine ophthalmic solutions from Example 1 was assessed in a Conjunctival Allergen Challenge (“CAC”) performed on adult volunteers with a history of allergic conjunctivitis. Subjects were selected after two visits to confirm reactivity to the allergen challenge. […] Subjects were then challenged with allergen by instilling reconstituted commercially available allergen into each eye on two separate visits 16 hours and 15 minutes after the bilateral instillation of alcaftadine, PATANOL® olopatadine hydrochloride ophthalmic solution 0.1% (Alcon, Inc., Fort Worth, Tex.) or vehicle, and the clinical response assessed.
Assessments were made at 7, 15 and 20 minutes post challenge based on investigator evaluations of redness using a 5 point scale.
Nasal symptoms of sneezing, rhinorrhea, pruritis (nasal and ear/palate) and nasal congestion were assessed by subjects using standardized scales.

[3] = tested on: RBL-CCR1 (Rat Basophil Leukemia-Chemokine Receptor-1) cell line; assay: Mast cell degranulation / cell stabilization in RBL-CCR1 cells; type: cell-based
Description: The cell stabilization potential of alcaftadine was evaluated using the RBL-CCR1 (Rat Basophil Leukemia-Chemokine Receptor-1) cell line as a way of investigating its ability to effect mast cell stabilization. The use of basophil cell lines to assess anti-allergic drugs for cell stabilization potential is well established. Physiologically, basophils are similar to mast cells, containing pre-formed inflammatory mediators that are released through a similar degranulation process involving IgE cross-linking. Because these cell lines are readily available, they present efficiencies over conducting stabilization assays in mast cell lines.
Cultured RBL-CCR1 cells were sensitized to anti-DNP IgE. Following sensitization, cells were treated with various concentrations of alcaftadine or its major active metabolite (0.083%, 0.0083% and 0.00083%) or ophthalmic vehicle (placebo), and stimulated with DNP and/or MIP-1a (Macrophage Inflammatory Protein-1 alpha, a degranulation enhancer) to induce degranulation. A 10× and 100× placebo control solution (ophthalmic vehicle solution) in D-DEM (Dulbecco's modified Eagle's medium) was also employed.
However, co-stimulation induced a robust degranulation response.

[4] = Bunder Glas bottles, Y Irradiation (gamma, 25 kGy), 50° C., 6 days
[5] = Bunder Glas bottles, Y Irradiation (gamma, 25 kGy), 50° C., 14 days
[6] = Bunder Glas bottles, no sterilization, 50° C., 6 days
[7] = Bunder Glas bottles, no sterilization, 50° C., 14 days
[8] = Rexam bottles, no sterilization, 50° C., 6 days
[9] = Rexam bottles, no sterilization, 50° C., 14 days
[10] = administered 16 hours prior to challenge

Alcaftadine [1, 4]: 2.41 mg/mL
Oxide [1, 4]: 0.199%
Alcaftadine [1, 5]: 2.39 mg/mL
Oxide [1, 5]: 0.202%
Alcaftadine [1, 6]: 2.48 mg/mL
Oxide [1, 6]: 0.018%
Alcaftadine [1, 7]: 2.48 mg/mL
Oxide [1, 7]: 0.042%
Oxide ([1]; Glass Vials, 50° C., 6 days): 0.024%
Alcaftadine ([1]; Glass Vials, 50° C., 6 days, sample showed significant evaporation): 2.57* mg/mL
Alcaftadine ([1]; Initial Solution): 2.47 mg/mL
Oxide ([1]; Initial Solution): 0.02%
Alcaftadine [1, 8]: 2.46 mg/mL
Oxide [1, 8]: 0.015%
Alcaftadine [1, 9]: 2.48 mg/mL
Oxide [1, 9]: 0.033%
susceptibility to oxidation ([1]; primary degradation product N-oxide): susceptible to oxidation
SMILES: CN1CCC(=C2c3ccccc3CCn3c(C=O)cnc32)CC1 [Alcaftadine, 6,11-dihydro-11-(1-methyl-4-piperidinylidene)-5H-imidazo[2,1-b][3]benzazepine-3-carboxaldehyde]
N-oxide formation in gamma irradiated Bunder Glas bottles compared with glass vials and non-sterilized Rexam and Bunder Glas bottles ([1]; 50° C.): significantly increased levels of N-oxide formation
itching scores versus vehicle or PATANOL ([2]; 0.25% treatment group, challenged 15 minutes post-treatment): lower itching scores than vehicle or PATANOL®
conjunctival redness scores versus vehicle or PATANOL ([2]; 0.25% treatment group, challenged at 15 minutes post-treatment): lower scores than vehicle or PATANOL®
inhibition of conjunctival redness [2, 10]: dose-related inhibition of conjunctival redness
inhibition of ocular itching [2, 10]: dose-related inhibition of ocular itching
mean itching scores versus vehicle or PATANOL ([2]; all concentrations, 16 hours prior to challenge, 3, 5 and 7 minutes post-challenge, 5 point scale): lower mean itching scores
mean conjunctival redness scores ([2]; all concentrations, 16 hours prior to challenge, 7, 15 and 20 minutes post challenge, 5 point scale): various degrees of reduction in mean conjunctival redness scores at most assessment times
relief of nasal congestion and rhinorrhea ([2]; all concentrations, various time points): some degree of relief
effect on sneezing ([2]; baseline sneezing incidence likely too low): No effect on sneezing was demonstrated
inhibition of ocular itching ([2]; challenged 15 minutes post-treatment): dose-related inhibition of ocular itching as compared to placebo
reduction of rhinorrhea, nasal congestion, and pruritis of the palate/ear ([2]; majority of timepoints at both onset and duration visits): significant reduction
overall membrane stabilization [3]: effective membrane stabilizing agents
stabilization effect added to that of placebo ([3]; 10× dose level): enhanced the stabilization effect
degranulation at the highest concentration ([3]; […], DNP-HSA alone, MIP-1a alone, and co-stimulation): unanticipated and significant degranulation
cell stabilization compared to co-stimulation control and negative controls (placebo 10× and placebo 100×) ([3]; co-stimulation assay, concentrations of […] and […], p<0.0001 for both concentrations): superior at cell stabilization

Reference: US10617695B2, “Ophthalmic compositions containing alcaftadine” (Vistakon Pharmaceuticals, LLC, priority 2006, dated 2020)
